Assay results reported in ChEMBL document CHEMBL4354794, “Potential Anticancer Agents Characterized from Selected Tropical Plants” (J Nat Prod, 2019).

Key:
Assay type in all cases: functional, cell-based
[1] = test system: HT-29; assay: Antiproliferative activity against human HT-29 cells assessed as reduction in cell viability after 3 days by SRB assay; conditions: HT-29, 72 h
[2] = test system: HT-29; assay: Antiproliferative activity against human HT-29 cells assessed as reduction in cell viability
[3] = test system: BGC-823; assay: Antiproliferative activity against human BGC823 cells assessed as reduction in cell viability after 48 hrs by MTT assay; conditions: BGC-823, 48 h
[4] = test system: A549; assay: Antiproliferative activity against human A549 cells assessed as reduction in cell viability after 48 hrs by MTT assay; conditions: A549, 48 h

IC50 [1] [nM]	IC50 [2] [nM]	IC50 [3] [nM]	IC50 [4] [nM]	SMILES
–	1400	–	–	C=C1C(=O)O[C@@H]2C[C@@H](C)[C@H](OC)CC(=O)[C@](C)(OC(C)=O)C[C@H](OC(=O)/C(C)=C\C)[C@@H]12
–	–	2200	560	COCOc1cc2c(c(O)c1Br)C(=O)C1=CC3CC4C(C)(C)OC(C/C=C(\C)CO)(C3=O)C14O2 (stereo not given)
–	580	–	–	C=C1C(=O)O[C@@H]2/C=C(/C)C3=CC(=O)[C@@](C)(C[C@H](OC(=O)C(C)C)[C@@H]12)O3
3200	–	–	–	CC(C)=CCc1c(O)c(CC=C(C)C)c2c(c1O)C(=O)C1=C[C@H]3C[C@@H]4C(C)(C)O[C@@](C/C=C(/C)C(=O)O)(C3=O)[C@@]14O2
–	1000	–	–	C=C1C(=O)O[C@@H]2C[C@@H](C)[C@H](OC)CC(=O)[C@](C)(O)C[C@H](OC(=O)/C(C)=C\C)[C@@H]12
–	560	–	–	C=C1C(=O)O[C@@H]2C[C@@H](C)C3=CC(=O)[C@@](C)(C[C@H](OC(=O)/C(C)=C\C)[C@@H]12)O3
–	–	3800	2500	COCOc1cc(O)c2c(c1)OC13C(=CC4CC1C(C)(C)OC3(C/C=C(\C)CO)C4=O)C2=O (stereo not given)
–	–	3200	3300	COCOc1cc(O)c2c(c1)OC13C(=CC4CC1C(C)(C)OC3(CC=C(C)C)C4=O)C2=O (stereo not given)
–	–	1600	960	COCOc1cc(O)c2c(c1)OC13C(=CC4CC1C(C)(C)OC3(C/C=C(\C)CBr)C4=O)C2=O (stereo not given)
2900	–	–	–	CC(C)=CCc1c2c(c(O)c3c1O[C@]14C(=C[C@H]5C[C@@H]1C(C)(C)O[C@@]4(C/C=C(/C)C(=O)O)C5=O)C3=O)CC(O)C(C)(C)O2 (single isomer, unassigned; (-))
–	1900	–	–	C=C(C)C(=O)O[C@H]1C[C@@]2(C)OC(=CC2=O)[C@H](C)[C@H](O)[C@H]2OC(=O)C(=C)[C@@H]21
–	–	860	1700	COCOc1cc(O)c2c(c1)OC13C(=CC4CC1C(C)(C)OC3(C[C@H](O)C(C)(C)O)C4=O)C2=O (stereo not given in full)
2600	–	–	–	C=C(C)C(O)Cc1c2c(c(O)c3c1O[C@]14C(=C[C@H]5C[C@@H]1C(C)(C)O[C@@]4(C/C=C(\C)C(=O)O)C5=O)C3=O)C=CC(C)(C)O2 (stereo not given in full)
–	280	–	–	C=C(C)C(=O)O[C@H]1C[C@@]2(C)OC(=CC2=O)C(=C)[C@H](O)[C@H]2OC(=O)C(=C)[C@@H]21
–	150	–	–	C=C(C)C(=O)O[C@H]1C[C@@]2(C)OC(=CC2=O)[C@H](C)C(CC(=C)C(=O)O[C@H]2C[C@@]3(C)OC(=CC3=O)/C(C)=C\[C@H]3OC(=O)C(=C)[C@H]23)[C@H]2OC(=O)C(=C)[C@H]12 (stereo not given in full)
–	–	5000	1000	COCOc1cc(O)c2c(c1)OC13C(=CC4CC1C(C)(C)OC3(C/C=C(\C)C=O)C4=O)C2=O (stereo not given)
–	6600	–	–	C=C1C(=O)O[C@@H]2[C@@H](O)[C@@H](C)C3=CC(=O)[C@@](C)(C[C@H](OC(=O)/C(C)=C\C)[C@@H]12)O3
–	4000	–	–	C=C1C(=O)O[C@@H]2C/C(C)=C\CC(=O)[C@](C)(OC(C)=O)C[C@H](OC(=O)/C(C)=C\C)[C@@H]12
19	–	–	–	COc1cc2c(O[C@@H]3OC[C@H](O)[C@H](O)[C@H]3OC)c3c(c(-c4ccc5c(c4)OCO5)c2cc1OC)C(=O)OC3

SMILES	IC50 [1] [nM]	IC50 [2] [nM]	IC50 [3] [nM]	IC50 [4] [nM]
CO[C@H]1[C@H]2C(=O)c3c(O)c4c(c(CC=C(C)C)c3O[C@@]23[C@@H]2C[C@H]1C(=O)[C@]3(C/C=C(/C)C(=O)O)OC2(C)C)OC(C)(C)C=C4	1900	–	–	–
CC(C)=CCC12OC(C)(C)C3CC(C=C4C(=O)c5c(O)cc(O)cc5OC431)C2=O (stereo not given)	–	–	5900	4100
CCCCCCCCCCCCCCCC(=O)OC[C@H]1O[C@@H](O[C@H]2CC[C@@]3(C)C(=CC[C@H]4[C@@H]5CC[C@H]([C@H](C)CC[C@@H](CC)C(C)C)[C@@]5(C)CC[C@@H]43)C2)[C@H](O)[C@@H](O)[C@@H]1O	> 10000	–	–	–
CC(C)=CCc1c2c(c(O)c3c1O[C@]14C(=C[C@H]5C[C@@H]1C(C)(C)O[C@@]4(C/C=C(/C)C(=O)O)C5=O)C3=O)C=CC(C)(C)O2	360	–	–	–
